Experimental data from PubChem BioAssay (NCI).
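Method: 48-hour compound exposure of cells in 96-well plates, five concentrations, linear interpolation of endpoints. The concentration for full growth arrest is given as TGI.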

Experiments:
Assay in all cases: NCI anticancer screen, dose series, 48 h
786-0 renal = tested on: 786-0 renal
A549 NSCLC = tested on: A549 NSCLC
ACHN renal = tested on: ACHN renal
BT-549 breast = tested on: BT-549 breast
CAKI-1 renal = tested on: CAKI-1 renal
CCRF-CEM leukemia = tested on: CCRF-CEM leukemia
COLO 205 colon = tested on: COLO 205 colon
DLD-1 colon = tested on: DLD-1 colon
DMS 114 small cell lung = tested on: DMS 114 small cell lung
DMS 273 small cell lung = tested on: DMS 273 small cell lung
DU-145 prostate = tested on: DU-145 prostate
HCC-2998 colon = tested on: HCC-2998 colon
HCT-116 colon = tested on: HCT-116 colon
HCT-15 colon = tested on: HCT-15 colon
HL-60(TB) leukemia = tested on: HL-60(TB) leukemia
HOP-18 NSCLC = tested on: HOP-18 NSCLC
HOP-92 NSCLC = tested on: HOP-92 NSCLC
HS 578T breast = tested on: HS 578T breast
HT29 colon = tested on: HT29 colon
IGROV1 ovarian = tested on: IGROV1 ovarian
K-562 leukemia = tested on: K-562 leukemia
KM12 colon = tested on: KM12 colon
LOX IMVI melanoma = tested on: LOX IMVI melanoma
LXFL 529 NSCLC = tested on: LXFL 529 NSCLC
M14 melanoma = tested on: M14 melanoma
M19-MEL melanoma = tested on: M19-MEL melanoma
MALME-3M melanoma = tested on: MALME-3M melanoma
MCF7 breast = tested on: MCF7 breast
MDA-MB-231 breast = tested on: MDA-MB-231 breast
MOLT-4 leukemia = tested on: MOLT-4 leukemia
NCI-H226 lung = tested on: NCI-H226 lung
NCI-H23 lung = tested on: NCI-H23 lung
NCI-H460 lung = tested on: NCI-H460 lung
NCI-H522 lung = tested on: NCI-H522 lung
NCI/ADR-RES ovarian = tested on: NCI/ADR-RES ovarian
OVCAR-4 ovarian = tested on: OVCAR-4 ovarian
OVCAR-5 ovarian = tested on: OVCAR-5 ovarian
PC-3 prostate = tested on: PC-3 prostate
RXF 393 renal = tested on: RXF 393 renal
SF-268 CNS = tested on: SF-268 CNS
SF-295 CNS = tested on: SF-295 CNS
SF-539 CNS = tested on: SF-539 CNS
SK-MEL-2 melanoma = tested on: SK-MEL-2 melanoma
SK-MEL-28 melanoma = tested on: SK-MEL-28 melanoma
SK-MEL-5 melanoma = tested on: SK-MEL-5 melanoma
SK-OV-3 ovarian = tested on: SK-OV-3 ovarian
SN12C renal = tested on: SN12C renal
SNB-19 CNS = tested on: SNB-19 CNS
SNB-78 CNS = tested on: SNB-78 CNS
SR leukemia = tested on: SR leukemia
SW-620 colon = tested on: SW-620 colon
T-47D breast = tested on: T-47D breast
TK-10 renal = tested on: TK-10 renal
U251 CNS = tested on: U251 CNS
UACC-257 melanoma = tested on: UACC-257 melanoma
UACC-62 melanoma = tested on: UACC-62 melanoma
UO-31 renal = tested on: UO-31 renal
XF 498 CNS = tested on: XF 498 CNS
A498 renal = tested on: A498 renal
EKVX NSCLC = tested on: EKVX NSCLC
HOP-62 NSCLC = tested on: HOP-62 NSCLC
KM20L2 colon = tested on: KM20L2 colon
OVCAR-3 ovarian = tested on: OVCAR-3 ovarian
OVCAR-8 ovarian = tested on: OVCAR-8 ovarian
SNB-75 CNS = tested on: SNB-75 CNS
RPMI-8226 leukemia = tested on: RPMI-8226 leukemia

CNc1cccc(-c2cc(=O)c3cc4c(cc3[nH]2)OCO4)c1
TGI (786-0 renal): > 100 µM | TGI (A549 NSCLC): > 91.8 µM | TGI (ACHN renal): > 100 µM | TGI (BT-549 breast): > 100 µM | TGI (CAKI-1 renal): > 100 µM | TGI (CCRF-CEM leukemia): 11 µM | TGI (COLO 205 colon): 0.63 µM | TGI (DLD-1 colon): 0.969 µM | TGI (DMS 114 small cell lung): 7.84 µM | TGI (DMS 273 small cell lung): 16.9 µM | TGI (DU-145 prostate): 8.87 µM | TGI (HCC-2998 colon): 1.38 µM | TGI (HCT-116 colon): > 100 µM | TGI (HCT-15 colon): 3.66 µM | TGI (HL-60(TB) leukemia): 2.89 µM | TGI (HOP-18 NSCLC): > 100 µM | TGI (HOP-92 NSCLC): > 100 µM | TGI (HS 578T breast): 8.96 µM | TGI (HT29 colon): 2.71 µM | TGI (IGROV1 ovarian): > 100 µM | TGI (K-562 leukemia): > 19 µM | TGI (KM12 colon): > 24.7 µM | TGI (LOX IMVI melanoma): > 72.2 µM | TGI (LXFL 529 NSCLC): > 100 µM | TGI (M14 melanoma): > 100 µM | TGI (M19-MEL melanoma): > 100 µM | TGI (MALME-3M melanoma): > 100 µM | TGI (MCF7 breast): > 100 µM | TGI (MDA-MB-231 breast): 4.52 µM | TGI (MOLT-4 leukemia): > 20.9 µM | TGI (NCI-H226 lung): 8.71 µM | TGI (NCI-H23 lung): 7.28 µM | TGI (NCI-H460 lung): > 100 µM | TGI (NCI-H522 lung): 0.443 µM | TGI (NCI/ADR-RES ovarian): 0.568 µM | TGI (OVCAR-4 ovarian): > 100 µM | TGI (OVCAR-5 ovarian): 97.8 µM | TGI (PC-3 prostate): > 100 µM | TGI (RXF 393 renal): > 100 µM | TGI (SF-268 CNS): > 100 µM | TGI (SF-295 CNS): > 22.9 µM | TGI (SF-539 CNS): 0.573 µM | TGI (SK-MEL-2 melanoma): > 44.5 µM | TGI (SK-MEL-28 melanoma): > 100 µM | TGI (SK-MEL-5 melanoma): 6.92 µM | TGI (SK-OV-3 ovarian): 1.07 µM | TGI (SN12C renal): > 42.8 µM | TGI (SNB-19 CNS): > 100 µM | TGI (SNB-78 CNS): > 100 µM | TGI (SR leukemia): > 100 µM | TGI (SW-620 colon): > 100 µM | TGI (T-47D breast): > 100 µM | TGI (TK-10 renal): 77.5 µM | TGI (U251 CNS): > 49.5 µM | TGI (UACC-257 melanoma): > 100 µM | TGI (UACC-62 melanoma): > 100 µM | TGI (UO-31 renal): > 50.8 µM | TGI (XF 498 CNS): > 100 µM

O=[N+]([O-])c1cccc(C=NC23CC4CC(CC(C4)C2)C3)c1
TGI (786-0 renal): > 100 µM | TGI (A498 renal): > 100 µM | TGI (A549 NSCLC): > 100 µM | TGI (ACHN renal): > 100 µM | TGI (CAKI-1 renal): > 100 µM | TGI (CCRF-CEM leukemia): > 100 µM | TGI (COLO 205 colon): > 100 µM | TGI (DLD-1 colon): > 100 µM | TGI (DMS 114 small cell lung): > 100 µM | TGI (DMS 273 small cell lung): > 100 µM | TGI (EKVX NSCLC): > 100 µM | TGI (HCC-2998 colon): > 100 µM | TGI (HCT-116 colon): > 100 µM | TGI (HCT-15 colon): > 100 µM | TGI (HL-60(TB) leukemia): 65.6 µM | TGI (HOP-18 NSCLC): > 100 µM | TGI (HOP-62 NSCLC): > 100 µM | TGI (HOP-92 NSCLC): > 100 µM | TGI (HT29 colon): > 100 µM | TGI (IGROV1 ovarian): > 100 µM | TGI (K-562 leukemia): > 100 µM | TGI (KM12 colon): > 100 µM | TGI (KM20L2 colon): > 100 µM | TGI (LOX IMVI melanoma): > 100 µM | TGI (LXFL 529 NSCLC): > 100 µM | TGI (M14 melanoma): > 100 µM | TGI (M19-MEL melanoma): > 100 µM | TGI (MALME-3M melanoma): > 100 µM | TGI (MOLT-4 leukemia): > 100 µM | TGI (NCI-H226 lung): > 100 µM | TGI (NCI-H23 lung): > 100 µM | TGI (NCI-H460 lung): > 100 µM | TGI (NCI-H522 lung): > 100 µM | TGI (OVCAR-3 ovarian): > 100 µM | TGI (OVCAR-4 ovarian): > 100 µM | TGI (OVCAR-5 ovarian): > 100 µM | TGI (OVCAR-8 ovarian): > 100 µM | TGI (RXF 393 renal): > 100 µM | TGI (SF-268 CNS): > 100 µM | TGI (SF-295 CNS): > 100 µM | TGI (SF-539 CNS): > 100 µM | TGI (SK-MEL-2 melanoma): > 100 µM | TGI (SK-MEL-28 melanoma): > 100 µM | TGI (SK-MEL-5 melanoma): > 100 µM | TGI (SK-OV-3 ovarian): > 100 µM | TGI (SN12C renal): > 100 µM | TGI (SNB-19 CNS): > 100 µM | TGI (SNB-75 CNS): > 100 µM | TGI (SNB-78 CNS): > 100 µM | TGI (SW-620 colon): > 100 µM | TGI (TK-10 renal): > 100 µM | TGI (U251 CNS): > 100 µM | TGI (UACC-257 melanoma): > 100 µM | TGI (UACC-62 melanoma): > 100 µM | TGI (UO-31 renal): > 100 µM | TGI (XF 498 CNS): > 100 µM

Cc1cc2c(=O)cc(-c3ccc(O)cc3)oc2c(C(=O)O)c1C
TGI (786-0 renal): > 100 µM | TGI (A549 NSCLC): > 100 µM | TGI (ACHN renal): > 100 µM | TGI (CAKI-1 renal): 69.2 µM | TGI (CCRF-CEM leukemia): > 100 µM | TGI (COLO 205 colon): > 100 µM | TGI (DLD-1 colon): > 100 µM | TGI (DMS 114 small cell lung): > 100 µM | TGI (DMS 273 small cell lung): > 100 µM | TGI (EKVX NSCLC): > 100 µM | TGI (HCC-2998 colon): > 100 µM | TGI (HCT-116 colon): > 100 µM | TGI (HCT-15 colon): > 100 µM | TGI (HL-60(TB) leukemia): > 100 µM | TGI (HOP-18 NSCLC): > 100 µM | TGI (HOP-62 NSCLC): > 100 µM | TGI (HOP-92 NSCLC): > 100 µM | TGI (HT29 colon): > 100 µM | TGI (IGROV1 ovarian): > 100 µM | TGI (K-562 leukemia): > 100 µM | TGI (KM12 colon): > 100 µM | TGI (KM20L2 colon): > 100 µM | TGI (LOX IMVI melanoma): > 100 µM | TGI (LXFL 529 NSCLC): > 100 µM | TGI (M14 melanoma): > 100 µM | TGI (M19-MEL melanoma): > 100 µM | TGI (MALME-3M melanoma): > 100 µM | TGI (MOLT-4 leukemia): > 100 µM | TGI (NCI-H226 lung): > 100 µM | TGI (NCI-H23 lung): > 100 µM | TGI (NCI-H460 lung): > 100 µM | TGI (NCI-H522 lung): > 100 µM | TGI (OVCAR-3 ovarian): > 100 µM | TGI (OVCAR-4 ovarian): > 100 µM | TGI (OVCAR-5 ovarian): > 100 µM | TGI (OVCAR-8 ovarian): > 100 µM | TGI (RPMI-8226 leukemia): > 100 µM | TGI (SF-295 CNS): > 100 µM | TGI (SF-539 CNS): > 100 µM | TGI (SK-MEL-2 melanoma): > 100 µM | TGI (SK-MEL-28 melanoma): > 100 µM | TGI (SK-MEL-5 melanoma): > 100 µM | TGI (SK-OV-3 ovarian): > 100 µM | TGI (SN12C renal): > 100 µM | TGI (SNB-19 CNS): > 100 µM | TGI (SNB-75 CNS): > 100 µM | TGI (SNB-78 CNS): > 100 µM | TGI (SR leukemia): > 100 µM | TGI (SW-620 colon): > 100 µM | TGI (TK-10 renal): > 100 µM | TGI (U251 CNS): > 100 µM | TGI (UACC-257 melanoma): > 100 µM | TGI (UACC-62 melanoma): > 100 µM | TGI (UO-31 renal): > 100 µM | TGI (XF 498 CNS): > 100 µM
